Laboratory results taken from patent US20240158368A1, “Pyrrolidine Main Protease Inhibitors as Antiviral Agents” (AbbVie Inc., priority 2022, published 2024).

Experiments:
SARS-CoV-1 Mpro = SARS-CoV-1 Mpro (Severe acute respiratory syndrome coronavirus (SARS-CoV), UniProt P0C6X7); type: biochemical
OC43 virus = assay: microbe, parasite or virus in culture; type: cell-based; settings: Betacoronavirus 1, OC43, Huh-7, read-out: Antiviral OC43 EC50 (μM)
229E Mpro = 229E Mpro (Human coronavirus 229E (HCoV-229E), UniProt P0C6X1); type: biochemical
[1] = test system: SARS-CoV-2 (strain USA-WA1/2020); assay: microbe, parasite or virus in culture; type: cell-based; settings: Severe acute respiratory syndrome coronavirus 2; HeLa-ACE2 cells; read-out: Antiviral CoV-2 EC50
229E virus = assay: organism not typed; type: cell-based; settings: Huh-7, read-out: Antiviral 229E EC50 (μM)
SARS-CoV-2 Mpro = SARS-CoV-2 Mpro (Severe acute respiratory syndrome coronavirus 2 (2019-nCoV) (SARS-CoV-2), UniProt P0DTD1); type: biochemical
in vitro [2] = settings: PAMPA
in vitro [3] = settings: rat, microsomes, pH 7.4
OC43 Mpro = OC43 Mpro (Human coronavirus OC43 (HCoV-OC43), UniProt P0C6X6); type: biochemical
in vitro [4] = settings: human, microsomes, pH 7.4
MERS Mpro = MERS Mpro (Middle East respiratory syndrome-related coronavirus (isolate United Kingdom/H123990006/2012) (MERS-CoV) (Betacoronavirus England 1), UniProt K9N7C7); assay: biochemical
MERS Mpro, sequence (K9N7C7 3248-3553 limits assumed): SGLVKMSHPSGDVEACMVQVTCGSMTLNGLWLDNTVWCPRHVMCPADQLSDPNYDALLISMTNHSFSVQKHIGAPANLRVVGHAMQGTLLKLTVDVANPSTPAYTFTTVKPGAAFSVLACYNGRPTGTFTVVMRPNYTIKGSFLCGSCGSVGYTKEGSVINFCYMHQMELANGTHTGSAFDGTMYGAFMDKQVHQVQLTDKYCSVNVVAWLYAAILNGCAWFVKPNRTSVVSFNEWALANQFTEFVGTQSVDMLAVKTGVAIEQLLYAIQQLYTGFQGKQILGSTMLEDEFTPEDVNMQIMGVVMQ

OC43 Mpro, sequence (P0C6X6 3247-3549 limits assumed): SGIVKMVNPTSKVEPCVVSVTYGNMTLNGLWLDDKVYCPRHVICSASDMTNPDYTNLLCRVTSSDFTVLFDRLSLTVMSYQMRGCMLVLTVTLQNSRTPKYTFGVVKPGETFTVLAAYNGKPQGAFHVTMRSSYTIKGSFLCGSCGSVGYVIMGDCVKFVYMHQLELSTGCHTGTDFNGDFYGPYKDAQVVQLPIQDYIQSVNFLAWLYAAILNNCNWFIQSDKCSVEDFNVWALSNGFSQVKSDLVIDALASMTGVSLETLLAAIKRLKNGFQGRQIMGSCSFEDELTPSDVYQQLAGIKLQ
229E Mpro, sequence (P0C6X1 2966-3267 limits assumed): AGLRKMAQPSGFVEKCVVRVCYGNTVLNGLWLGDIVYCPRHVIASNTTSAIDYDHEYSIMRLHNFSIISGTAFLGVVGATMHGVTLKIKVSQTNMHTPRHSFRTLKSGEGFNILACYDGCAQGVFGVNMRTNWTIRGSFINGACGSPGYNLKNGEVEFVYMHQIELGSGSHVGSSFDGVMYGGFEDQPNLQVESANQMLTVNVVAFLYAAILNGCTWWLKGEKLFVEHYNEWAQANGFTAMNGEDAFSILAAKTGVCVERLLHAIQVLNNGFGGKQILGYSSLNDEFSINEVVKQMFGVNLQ

| SMILES | EC50 (SARS-CoV-1 Mpro) [nM] | EC50 (OC43 virus) [µM] | EC50 (229E Mpro) [nM] | EC50 [1] [nM] | EC50 (229E virus) [µM] | EC50 (SARS-CoV-2 Mpro) [nM] | Papp (in vitro [2]) [×10⁻⁶ cm/s] | CLint scaled (in vitro [3]) [mL/min/kg] | EC50 (OC43 Mpro) [nM] | CLint scaled (in vitro [4]) [mL/min/kg] | EC50 (MERS Mpro) [nM] |
| --- | --- | --- | --- | --- | --- | --- | --- | --- | --- | --- | --- |
| O=C(N[C@@H]1CCN(c2c(C(=O)N3CCOCC3)cc(Br)cc2C(F)(F)F)C1)c1cc(=O)[nH]c2c(F)cc(F)cc12 [Compound 49] | 1.1 | 0.168 | 4.7 | 11.3 | 0.0959 | 0.43 | 15.6 | 573 | 1.64 | 190 | 0.95 |
| N#Cc1cc(C(=O)N2CCOCC2)c(N2CC[C@@H](NC(=O)c3c(F)c(=O)[nH]c4c(F)cccc34)C2)c(C(F)(F)F)c1 [Compound 5] | 1.5 | 0.047 | 1.44 | 10.2 | 0.039 | 0.48 | 7.23 | < 60 | 1.25 | < 36.7 | 1.26 |
| O=C(N[C@@H]1CCN(c2c(C(=O)N3CCOCC3)cc(Br)cc2C(F)(F)F)C1)c1c(F)c(=O)[nH]c2c(F)c(F)ccc12 [Compound 50] | 2.23 | 0.303 | 4.51 | 11.4 | 0.319 | 0.5 | 16.2 | 165 | 1.2 | 190 | 1.9 |
| O=C(N[C@@H]1CCN(c2c(C(=O)N3CCOCC3)cc(Br)cc2C(F)(F)F)C1)c1cc(=O)[nH]c2c(Cl)cccc12 [Compound 58] | 1.07 | 0.864 | 24.5 | – | 0.983 | 0.42 | 17.9 | 1000 | 5.84 | 365 | 0.91 |
| CN1CCN(C(=O)c2cc(C#N)cc(C(F)(F)F)c2N2CC[C@@H](NC(=O)c3cc(=O)[nH]c4c(F)cccc34)C2)CC1 [Compound 14] | 2.73 | 0.19 | 2.1 | 12.9 | 0.15 | 0.46 | 2.73 | 56.7 | 2 | < 30 | 1.33 |
| O=C(N[C@@H]1CCN(c2c(C(=O)N3CCOCC3)cc(Br)cc2C(F)(F)F)C1)c1cc(C(F)F)[nH]c(=O)c1 [Compound 61] | 4.61 | 11.4 | 367 | 413 | 63.1 | 1.93 | 15.7 | 83.3 | 52.3 | 51.7 | 3.25 |
| O=C(N[C@@H]1CCN(c2c(C(=O)N3CCOCC3)cc(Br)cc2C(F)(F)F)C1)c1cc(=O)[nH]c2ccccc12 [Compound 56] | 4.49 | 0.014 | 1.83 | 18.1 | 0.062 | 0.45 | 10.9 | 400 | 0.74 | 157 | 0.92 |
| Cc1cc(C(=O)N2CCOCC2)c(N2C[C@H](NC(=O)c3cc(=O)[nH]c4c(F)cc(F)cc34)CC2=O)c(C2CC2)c1 [Compound 74] | 1.43 | 0.429 | 7.24 | 52 | 0.248 | 0.59 | 3.54 | < 56.7 | 3.4 | < 33.3 | 1.29 |
| Cc1cc(C(=O)N2CCOCC2)c(N2C[C@H](NC(=O)c3cc(=O)[nH]c4c(F)c(F)ccc34)C[C@H]2C)c(C2CC2)c1 [Compound 83] | 1.53 | 0.023 | 1.76 | – | 0.029 | 0.42 | 15.7 | 1430 | 0.42 | 1120 | 1.39 |
| N#Cc1cc(C(=O)N2CCOCC2)c(N2CC[C@@H](NC(=O)c3cc(=O)[nH]c4c(F)c(F)ccc34)C2)c(C(F)(F)F)c1 [Compound 8] | 1.52 | 0.88 | 3.34 | 19 | 0.25 | 0.43 | 5.11 | < 60 | 4.71 | < 35 | 1.48 |
| COc1cccc2[nH]c(=O)cc(C(=O)N[C@H]3CN(c4c(C(=O)N5CCOCC5)cc(C)cc4C4CC4)C[C@@H]3OC)c12 [Compound 84] | – | 0.019 | 2.35 | 35.1 | 0.141 | 0.6 | 3.6 | 195 | 0.64 | 120 | 2.44 |
| N#Cc1cc(C(=O)N2CCOCC2)c(N2C[C@H](NC(=O)c3cc(=O)[nH]c4c(F)c(F)ccc34)CC2=O)c(C(F)(F)F)c1 [Compound 34] | 2.98 | 7.32 | 41.7 | – | 3.37 | 1.12 | 1.04 | < 45 | 91.8 | < 26.7 | 2.28 |
| O=C(N[C@@H]1CCN(c2c(C(=O)N3CCOCC3)cc(Cl)cc2C(F)(F)F)C1)c1cc(=O)[nH]c2c(F)cccc12 [Compound 36] | 1.43 | 0.0487 | 2.39 | 9.1 | 0.0578 | 0.49 | 14.3 | 403 | 0.84 | 95 | 1.02 |
| O=C(N[C@@H]1CCN(c2c(C(=O)N3CCOCC3)cc(Br)cc2C(F)(F)F)C1)c1cc(=O)[nH]c2c(F)c(F)ccc12 [Compound 51] | 1.23 | 0.0584 | 3.56 | 16 | 0.0475 | 0.42 | 14.5 | 447 | 1.1 | 125 | 0.68 |
| COc1cccc2[nH]c(=O)cc(C(=O)N[C@@H]3CCN(c4c(C(=O)N5CCOCC5)cc(C)cc4C4CC4)C3)c12 [Compound 81] | 1.38 | 0.013 | 2.13 | 18.2 | 0.073 | 0.49 | 2.81 | 227 | 0.66 | 65 | 2.31 |
| COc1cccc2[nH]c(=O)cc(C(=O)N[C@@H]3CCN(c4c(C(=O)N5CCOCC5)cc(F)cc4C4CC4)C3)c12 [Compound 79] | – | 0.02 | 2.42 | 38.5 | 0.0284 | 0.42 | 2.98 | 235 | 0.76 | 31.7 | 1.51 |
| C[C@@H]1C[C@@H](NC(=O)c2cc(=O)[nH]c3c(F)c(F)ccc23)CN1c1c(C(=O)N2CCOCC2)cc(C#N)cc1C(F)(F)F [Compound 31] | – | 0.141 | 2.81 | 8.8 | 0.073 | 0.5 | 11.8 | 457 | 1.77 | 91.7 | 1.94 |
